In patent US8012959B2, “Diaminopyrimidinecarboxamide derivative” (Astellas Pharma Inc., priority 2002, dated 2011):

What was measured:
STAT 6 = molecular target: T1, STAT 6 (Homo sapiens, UniProt P42226); experiment: STAT 6 tyrosine phosphorylation in IL-4-stimulated H292 cell (western blotting); assay type: cell-based; details: 1 μM compound, 10 ng/ml human IL-4, disappearance of the about 110 kDa band
T1 construct: host or cells: H292
T1 sequence (P42226 1-847): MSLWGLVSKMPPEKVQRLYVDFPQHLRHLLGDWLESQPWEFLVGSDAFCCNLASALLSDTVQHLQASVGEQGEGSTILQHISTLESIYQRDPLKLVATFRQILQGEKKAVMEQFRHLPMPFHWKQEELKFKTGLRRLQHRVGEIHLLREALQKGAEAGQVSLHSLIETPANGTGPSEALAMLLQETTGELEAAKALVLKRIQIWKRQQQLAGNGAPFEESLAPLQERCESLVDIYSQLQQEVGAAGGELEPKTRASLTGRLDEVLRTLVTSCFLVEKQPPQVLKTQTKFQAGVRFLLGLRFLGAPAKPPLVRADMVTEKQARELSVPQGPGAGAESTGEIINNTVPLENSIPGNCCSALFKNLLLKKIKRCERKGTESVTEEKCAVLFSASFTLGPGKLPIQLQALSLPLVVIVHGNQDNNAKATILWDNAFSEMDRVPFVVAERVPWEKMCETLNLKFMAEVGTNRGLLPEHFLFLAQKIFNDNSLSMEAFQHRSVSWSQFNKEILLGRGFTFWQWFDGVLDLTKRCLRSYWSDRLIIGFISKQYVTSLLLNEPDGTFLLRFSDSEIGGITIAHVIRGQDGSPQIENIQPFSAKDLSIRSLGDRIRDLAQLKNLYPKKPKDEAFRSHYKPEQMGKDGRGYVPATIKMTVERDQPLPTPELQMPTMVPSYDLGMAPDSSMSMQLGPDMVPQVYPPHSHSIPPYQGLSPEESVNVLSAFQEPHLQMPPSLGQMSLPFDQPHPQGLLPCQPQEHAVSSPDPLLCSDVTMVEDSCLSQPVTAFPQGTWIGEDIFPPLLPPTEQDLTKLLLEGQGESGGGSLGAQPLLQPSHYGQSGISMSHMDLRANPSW
Procedure: Measurement of STAT 6 Tyrosine Phosphorylation
The H292 cell (ATCC) (5×10^5 cells/0.5 ml) was inoculated into a 12 well plate (IWAKI) and cultured overnight, and then stimulation with 10 ng/ml of human IL-4 (Genzyme techne) was carried out. In the case of the evaluation of compounds, compound dilutions were added to the wells 20 minutes before the IL-4 stimulation. Also, regarding the dilution of compounds, dilution was carried out using 10% FBS-containing RPMI 1640 such that the final concentration of DMSO in which each compound was dissolved became 0.1% or less. This was washed three times with ice-cooled physiological phosphate buffer 20 minutes after the IL-4 stimulation. After the washing, 100 μl/well of a cell lysis solution (TNE buffer: 10 mM Tris-HCl pH 7.8, 1% NP-40, 0.15 M NaCl, 1 mM EDTA, 10 μg/ml aprotinin, 1 mM NaF and 1 mM Na3VO4) was added. The cell lysate was recovered, and 15 μl thereof was subjected to western blotting after SDS electrophoresis using an anti-tyrosine phosphorylated STAT 6 antibody (Cell Signaling). Whether or not the tyrosine phosphorylation band of about 110 kDa is disappeared, which is IL-4 stimulation-dependently detected, was judged. Also, uniform transference of the STAT 6 protein was confirmed using the same transfer membrane by western blotting which used an anti-STAT 6 antibody (SantaCruz).

neutrophil infiltration = experiment: SO2 gas-induced intra-alveolar neutrophil infiltration model; assay type: in vivo; details: hydrochloride, oral administration, 10 mg/kg, for 2 days, male C57BL/6 mice, SO2 gas 600 ppm, alveolar lavage fluid
Procedure: Evaluation Using SO2 Gas-induced Intra-alveolar Neutrophil Infiltration Model Mouse Asthma Model
Male C57BL/6 mice were exposed to SO2 gas (600 ppm) for 3 hours and sacrificed by bloodletting 48 hours after the exposure, and then alveolar lavage was carried out. After the measurement of total white blood cell count in the alveolar lavage fluid, cell smear preparations were stained to calculate existing ratio of neutrophil based on its morphological characteristics. The number of neutrophils was calculated from the total white blood cell count and existing ratio of respective cells. A compound to be tested or a control, 0.5% methyl cellulose, was orally administered for 2 days from just before the exposure or just after the exposure to before the alveolar lavage.

[1] = system: antigen-induced eosinophil infiltration; experiment: Mouse asthma model (OA-sensitized, antigen-induced eosinophil infiltration in alveolar lavage fluid); assay type: in vivo; details: hydrochloride, oral administration, 1 mg/kg, for 3 days, female Balb/c mice
Procedure: Evaluation Using Mouse Asthma Model
Active sensitization of female Balb/c mice were carried out by intraperitoneally administering ovalbumin (OA) and an adjuvant, aluminum hydroxide gel (alum), twice. Mice were exposed to OA by inhalation 12 days after the initial sensitization and sacrificed by bloodletting 72 hours after the exposure, and then alveolar lavage was carried out. A compound to be tested or a control, 0.5% methyl cellulose, was orally administered for 3 days from before the OA exposure to before the alveolar lavage. After the measurement of total white blood cell count in the alveolar lavage fluid, cell smear preparations were stained to calculate existing ratio of eosinophil based on its morphological characteristics. The total number of eosinophils was calculated from the total white blood cell count and existing ratio of respective kinds of cells.

inhibition of STAT 6 tyrosine phosphorylation (STAT 6)	Structure (SMILES)	inhibition of neutrophil infiltration (neutrophil infiltration)	inhibition of antigen-induced eosinophil infiltration [1]
completely inhibited	Cc1cccc(Nc2nc(NCCc3ccc(O)c(Cl)c3)ncc2C(N)=O)c1 [Production Example 99]	–	–
completely inhibited	NC(=O)c1cnc(Nc2ccc(N3CCOCC3)cc2)nc1NCc1ccccc1 [Example 3, 4-benzylamino-2-{[4-(morpholin-4-yl)phenyl]amino}pyrimidine-5-carboxamide]	about 70%	about 60%

Structure (SMILES)	inhibition of STAT 6 tyrosine phosphorylation (STAT 6)	inhibition of neutrophil infiltration (neutrophil infiltration)	inhibition of antigen-induced eosinophil infiltration [1]
COc1ccccc1CNc1nc(Nc2ccc(N3CCOCC3)cc2)ncc1C(N)=O [Example 35]	completely inhibited	–	–
